Holding throughout (assay type): cell-based
In one experiment the test system is Septoria tritici. As to the kind of experiment: Fungicidal activity against Septoria tritici, micro titer plate (MTP) test. As to conditions: Zymoseptoria tritici, 168 h, read-out: Observed efficacy.
The subject of experiment [1] is Colletotrichum orbiculare. The experiment is described as follows: Fungicidal activity against Colletotrichum orbiculare in the microtiterplate test. The conditions noted are these: for inhibition of growth at 6.3e-05 ppm: 0.000063 ppm.
In another experiment the test system is Leptosphaeria nodorum. As to the kind of experiment: Fungicidal activity against Leptosphaeria nodorum, microtiter plate (MTP) test. The conditions noted are these: for inhibition of growth at […] / inhibition of growth at 1 ppm / inhibition of growth at 0.004 ppm / inhibition of growth at 4 ppm: Parastagonospora nodorum, 168 h, read-out: Observed efficacy.
A further experiment concerns Pyricularia oryzae. The experiment is described as follows: microbe, parasite or virus in culture. As to conditions: for Observed efficacy: single compound.
Another experiment deals with Botrytis cinerea. The experiment is described as follows: Fungicidal activity against Botrytis cinerea, micro titer plate (MTP) test.
The mark [2] stands for this setting: Colletotrichum orbiculare, 0.016 ppm, read-out: Observed efficacy.
[3] abbreviates: Colletotrichum orbiculare, 0.25 ppm, read-out: Observed efficacy.
Where [4] appears, read: Pyricularia oryzae, 168 h, read-out: Observed efficacy.
Where [5] appears, read: Table V.4, component B alone, 0.063 ppm.
[6] abbreviates: Colletotrichum orbiculare, 1 ppm, read-out: Observed efficacy.
[7] abbreviates: Botrytis cinerea, 168 h, component B alone, 0.25 ppm, read-out: Observed efficacy.
Setting [8] is: Colletotrichum orbiculare, read-out: Observed efficacy.
Where [9] appears, read: Botrytis cinerea, 168 h, component B alone, read-out: Observed efficacy.
The mark [10] stands for this setting: Colletotrichum orbiculare, 0.001 ppm, read-out: Observed efficacy.
Setting [11] is: Table V.4, component B alone, 0.25 ppm.
[12] abbreviates: Botrytis cinerea, 168 h, component B alone, 0.016 ppm, read-out: Observed efficacy.

We go through 20 molecules from US20210084902A1, “FUNGICIDAL MIXTURE COMPRISING SUBSTITUTED 3-PHENYL-5-(TRIFLUOROMETHYL)-1,2,4-OXADIAZOLES” (BASF SE, priority 2017, published 2021).

Structures are written as SMILES. Where two headings read alike, the source gives them in different places.

Consider `CC1COC(Cn2cncn2)(c2ccc(Oc3ccc(Cl)cc3)cc2Cl)O1` (centres unmarked) [Difenoconazol, difenoconazole], for which the inhibition of growth at […] is 4% with Septoria tritici (Table V.4, component B alone, 0.016 ppm); 1% in experiment [1] (setting [2]); 14% in experiment [1] (setting [3]); 41% in the experiment with Leptosphaeria nodorum (0.063 ppm).
As for `CNC(=O)/C(=N/OC)c1ccccc1Oc1ccccc1` [Metominostrobin, metominostrobin], the inhibition of growth at 1 ppm in the experiment with Septoria tritici (Table V.4, component B alone) came out at 46%; in the experiment with Leptosphaeria nodorum, 43%; with Pyricularia oryzae (setting [4]), 59%.
On to `Cn1nc(C(F)F)c(C(=O)Nc2ccccc2Oc2ccc(C(F)(F)F)cc2Cl)c1F` [A.3.29, N-[2-[2-chloro-4-(trifluoromethyl)phenoxy]phenyl]-3-(difluoromethyl)-5-fluoro-1-methyl-pyrazole-4-carboxamide], for which the inhibition of growth at […] was 68% in the experiment on Septoria tritici (setting [5]), 4% in experiment [1] (setting [3]) and 55% with Botrytis cinerea (setting [7]). For the same molecule, the inhibition of growth at 1 ppm in experiment [1] (setting [6]) was found to be 11%; in the experiment with Pyricularia oryzae (setting [4]), 14%.
Take `Cc1cc(C2CC2)nc(Nc2ccccc2)n1` [Cyprodinil, cyprodinil]: the inhibition of growth at 1 ppm was 35% in experiment [1] (setting [6]), 66% in the experiment on Botrytis cinerea (setting [9]) and 56% in the experiment on Pyricularia oryzae (setting [4]). In addition, in experiment [1] (setting [8]), the inhibition of growth at 4 ppm was found to be 38%. For the same molecule, the inhibition of growth at 0.004 ppm in the experiment with Leptosphaeria nodorum (0.004 ppm) amounted to 71%.
Consider `CNC(=S)c1ccc(-c2noc(C(F)(F)F)n2)cc1` [I.M, N-methyl-4-[5-(trifluoromethyl)-1,2,4-oxadiazol-3-yl]benzenecarbothioamide], for which the inhibition of growth at […] is 14% in the experiment on Septoria tritici (Table V.5, I.M alone, 0.063 ppm); 23% in the experiment with Septoria tritici (Table V.5, I.M alone, 0.25 ppm); 2% in experiment [1] (Colletotrichum orbiculare, 0.00025 ppm, read-out: Observed efficacy); 7% in experiment [1] (setting [2]); 5% in the experiment on Leptosphaeria nodorum (0.016 ppm); 7% in the experiment with Leptosphaeria nodorum (0.25 ppm). For the same molecule, the inhibition of growth at […] in the experiment on Botrytis cinerea (Botrytis cinerea, 168 h, I.M alone, 0.063 ppm, read-out: Observed efficacy) came to 1%; with Botrytis cinerea (Botrytis cinerea, 168 h, I.M alone, 0.25 ppm, read-out: Observed efficacy), 2%. Further, the inhibition of growth at 1 ppm in the experiment with Septoria tritici (Table V.5, I.M alone) was found to be 35%; with Leptosphaeria nodorum, 18%; with Botrytis cinerea (Botrytis cinerea, 168 h, I.M alone, read-out: Observed efficacy) it was 0%; in the experiment on Pyricularia oryzae (setting [4]), 9%. The inhibition of growth at 4 ppm in the experiment on Septoria tritici (Table V.5, I.M alone) was determined as 42%; in the experiment on Leptosphaeria nodorum, 52%; with Botrytis cinerea (Botrytis cinerea, 168 h, I.M alone, 4 ppm, read-out: Observed efficacy), 15%; in the experiment with Pyricularia oryzae (setting [4]), 32%. In addition, the inhibition of growth at 6.3e-05 ppm in experiment [1] (setting [8]) stood at 2%. In addition, the inhibition of growth at 0.001 ppm in experiment [1] (setting [10]) was found to be 1%. For the same molecule, the inhibition of growth at 0.004 ppm in experiment [1] (Colletotrichum orbiculare, 0.004 ppm, read-out: Observed efficacy) was 1%; in the experiment with Leptosphaeria nodorum (0.004 ppm), 6%.
In the case of `Cc1ccc(-c2c(Cl)nc(C#N)n2S(=O)(=O)N(C)C)cc1` [Cyazofamid, cyazofamid], the inhibition of growth at 4 ppm turned out to be 2% in the experiment with Septoria tritici (Table V.4, component B alone) and 13% in the experiment with Pyricularia oryzae (setting [4]). For the same molecule, the inhibition of growth at 16 ppm in the experiment with Septoria tritici (Table V.4, component B alone, 16 ppm) was 8%. For the same molecule, in the experiment on Leptosphaeria nodorum (0.25 ppm), the inhibition of growth at […] stood at 6%.
With `CC(C)c1ccc(Cl)cc1CN(C(=O)c1c(C(F)F)nn(C)c1F)C1CC1` [Isoflucypram, N-[(5-chloro-2-isopropyl-phenyl)methyl]-N-cyclopropyl-3-(difluoromethyl)-5 fluoro-1-methyl-pyrazole-4-carboxamide], the inhibition of growth at […] with Septoria tritici (setting [11]) turned out to be 61%; with Botrytis cinerea (setting [7]), 53%. Also, the inhibition of growth at 1 ppm came out at 62% in the experiment with Septoria tritici (Table V.4, component B alone) and 11% in the experiment on Pyricularia oryzae (setting [4]).
Take `COc1ccc(C(=CC(=O)N2CCOCC2)c2ccc(Cl)cc2)cc1OC` [Dimethomorph, dimethomorph]: the inhibition of growth at 4 ppm was 11% with Septoria tritici (Table V.4, component B alone); 21% in experiment [1] (setting [8]); 41% in the experiment on Leptosphaeria nodorum; 8% in the experiment with Pyricularia oryzae (setting [4]). For the same molecule, the inhibition of growth at 1 ppm in the experiment on Pyricularia oryzae (setting [4]) stood at 4%.
Regarding `CC(Cc1ccc(C(C)(C)C)cc1)CN1C[C@@H](C)O[C@@H](C)C1` (some centres unmarked) [Fenpropimorph, fenpropimorph], the inhibition of growth at […] was determined as 0% in the experiment with Septoria tritici (setting [11]), 5% in experiment [1] (setting [3]) and 29% with Botrytis cinerea (setting [7]). The inhibition of growth at 1 ppm amounted to 19% in experiment [1] (setting [6]) and 8% in the experiment with Pyricularia oryzae (setting [4]).
Take `COC(=O)[C@@H](C)N(C(=O)Cc1ccccc1)c1c(C)cccc1C` [Benalaxyl-M, benalaxyl-M]: the Observed efficacy in experiment [1] (1 ppm) worked out at 2; with Botrytis cinerea (component B alone, 4 ppm) it was 7%; in the experiment with Pyricularia oryzae (1 ppm), 3; in the experiment on Pyricularia oryzae (4 ppm), 12.
As to `COC(=O)N(OC)c1ccccc1COc1ccn(-c2ccc(Cl)cc2)n1` [Pyraclostrobin, pyraclostrobin], the inhibition of growth at 6.3e-05 ppm with Septoria tritici (Table V.4, component B alone, 0.000063 ppm) stood at 21%. For the same molecule, the inhibition of growth at 0.001 ppm turned out to be 32% in experiment [1] (setting [10]) and 46% in the experiment on Pyricularia oryzae (setting [4]). In addition, the inhibition of growth at […] in experiment [1] (setting [2]) was found to be 60%; in the experiment with Leptosphaeria nodorum (0.00025 ppm) it was 22%; in the experiment on Botrytis cinerea (setting [12]), 14%. Moreover, the inhibition of growth at 0.004 ppm is 59% in the experiment on Leptosphaeria nodorum (0.004 ppm) and 0% with Botrytis cinerea (Botrytis cinerea, 168 h, component B alone, 0.004 ppm, read-out: Observed efficacy).
Turning to `CC(O)(Cn1cncn1)c1ccc(Oc2ccc(Cl)cc2)cc1C(F)(F)F` (centres unmarked) [Mefentrifluconazol, mefentrifluconazole], the Observed efficacy in experiment [1] (0.001 ppm) is 1; in the experiment with Leptosphaeria nodorum (0.004 ppm), 53.
With `Cc1cccc(-n2nnn(C)c2=O)c1COc1ccn(-c2ccc(Cl)cc2)n1` [A.1.25, 1-[2-[[1-(4-chlorophenyl)pyrazol-3-yl]oxymethyl]-3-methyl-phenyl]-4-methyl-tetrazol-5-one], the inhibition of growth at 0.004 ppm in the experiment with Septoria tritici was 3%; in the experiment with Pyricularia oryzae (setting [4]), 4%.
As to `N#Cc1c(Cl)c(Cl)c(Cl)c(C#N)c1Cl` [Chlorothalonil, chlorothalonil], the inhibition of growth at […] in the experiment with Septoria tritici (setting [11]) was found to be 25%. For the same molecule, the inhibition of growth at 1 ppm with Leptosphaeria nodorum was found to be 72%; in the experiment with Botrytis cinerea (setting [9]) it was 22%.
`CCCCNC(=O)n1c(NC(=O)OC)nc2ccccc21` [Benomyl, benomyl]: the inhibition of growth at 9 ppm in experiment [1] (Colletotrichum orbiculare, 9 ppm, read-out: Observed efficacy) turned out to be 38%. In the experiment with Leptosphaeria nodorum, the inhibition of growth at 1 ppm was determined as 15%. In the experiment on Botrytis cinerea (setting [12]), the inhibition of growth at […] was determined as 8%.
As for `CCN(C)C=Nc1cc(Br)c(OC2CCC(C(C)C)CC2)nc1C` (centres unmarked) [K.1.32, N′-[5-bromo-6-(4-isopropylcyclohexoxy)-2-methyl-3-pyridyl]-N-ethyl-N-methyl-formamidine], the figures for the inhibition of growth at […] (in the experiment with Septoria tritici (setting [11]); in experiment [1] (setting [3]); in the experiment on Leptosphaeria nodorum (0.25 ppm)) were 0%, 26% and 40%, respectively. Moreover, the inhibition of growth at 1 ppm in the experiment with Septoria tritici (Table V.4, component B alone) is 0%.
Regarding `CO/N=C(/C1=NOCCO1)c1ccccc1Oc1ncnc(Oc2ccccc2Cl)c1F` [Fluoxastrobin, fluoxastrobin], the inhibition of growth at […] in the experiment on Septoria tritici (setting [5]) is 3%; in the experiment with Septoria tritici (setting [11]), 32%; in experiment [1] (Colletotrichum orbiculare, 0.063 ppm, read-out: Observed efficacy) it was 51%; in the experiment with Leptosphaeria nodorum (0.25 ppm), 38%.
With `CNC(=O)C(=N/OC)/C(C)=C\COc1ccn(-c2ccc(Cl)cc2Cl)n1` [A.1.34, (Z,2E)-5-[1-(2,4-dichlorophenyl)pyrazol-3-yl]-oxy-2-methoxyimino-N,3-dimethyl-pent-3-enamide], in experiment [1] (setting [8]), the inhibition of growth at 6.3e-05 ppm was 37%. Moreover, the inhibition of growth at […] in the experiment on Leptosphaeria nodorum (0.063 ppm) was found to be 45%. Also, in the experiment on Botrytis cinerea (Botrytis cinerea, 168 h, component B alone, 16 ppm, read-out: Observed efficacy), the inhibition of growth at 16 ppm turned out to be 2%. In addition, the inhibition of growth at 63 ppm with Botrytis cinerea (Botrytis cinerea, 168 h, component B alone, 63 ppm, read-out: Observed efficacy) is 18%.
For `O=C(Nc1ccccc1-c1ccc(Cl)cc1)c1cccnc1Cl` [Boscalid, boscalid], the inhibition of growth at 1 ppm in the experiment on Septoria tritici (Table V.4, component B alone) amounted to 61%; in experiment [1] (setting [6]), 0%. Further, the inhibition of growth at […] in experiment [1] (setting [3]) came to 0%. Further, the inhibition of growth at 4 ppm in the experiment with Pyricularia oryzae (setting [4]) was found to be 5%.
As to `CC(Cc1ccc(C(C)(C)C)cc1)CN1CCCCC1` (centres unmarked) [Fenpropidin, fenpropidin], the inhibition of growth at 1 ppm in the experiment with Septoria tritici (Table V.4, component B alone) amounted to 1%; in experiment [1] (setting [6]), 9%; in the experiment with Leptosphaeria nodorum, 38%. Besides, the inhibition of growth at 4 ppm in experiment [1] (setting [8]) was 47%; in the experiment on Botrytis cinerea (Botrytis cinerea, 168 h, component B alone, 4 ppm, read-out: Observed efficacy) it was 28%.
